From PMC4685510, “A Cell Biologist’s Field Guide to Aurora Kinase Inhibitors” (Frontiers in Oncology, 2015)

Columns and labels:
Assay in all cases: biochemical
Type in all cases: biochemical
[1] = biological target: 363 human kinases (including Aurora A/B/C) (Homo sapiens, UniProt Q9P1W9); settings: PIM2; for remaining activity at 0.1 µM: 100 nM; for remaining activity at 0.1 µM / remaining activity at 0.5 µM: read-out: % Enzyme Activity (relative to DMSO controls)
Source text: (§1) However, the Aurora A/B selectivity ratios derived from our in vitro and in vivo data can be compared to prioritize inhibitors.

[2] = biological target: T1, 363 human kinases (including Aurora A/B/C) (Homo sapiens, UniProt Q9BZL6); settings: PKD2/PRKD2; for remaining activity at 0.1 µM: 100 nM; for remaining activity at 0.1 µM / remaining activity at 0.5 µM: read-out: % Enzyme Activity (relative to DMSO controls)
T1 sequence (Q9BZL6 1-878): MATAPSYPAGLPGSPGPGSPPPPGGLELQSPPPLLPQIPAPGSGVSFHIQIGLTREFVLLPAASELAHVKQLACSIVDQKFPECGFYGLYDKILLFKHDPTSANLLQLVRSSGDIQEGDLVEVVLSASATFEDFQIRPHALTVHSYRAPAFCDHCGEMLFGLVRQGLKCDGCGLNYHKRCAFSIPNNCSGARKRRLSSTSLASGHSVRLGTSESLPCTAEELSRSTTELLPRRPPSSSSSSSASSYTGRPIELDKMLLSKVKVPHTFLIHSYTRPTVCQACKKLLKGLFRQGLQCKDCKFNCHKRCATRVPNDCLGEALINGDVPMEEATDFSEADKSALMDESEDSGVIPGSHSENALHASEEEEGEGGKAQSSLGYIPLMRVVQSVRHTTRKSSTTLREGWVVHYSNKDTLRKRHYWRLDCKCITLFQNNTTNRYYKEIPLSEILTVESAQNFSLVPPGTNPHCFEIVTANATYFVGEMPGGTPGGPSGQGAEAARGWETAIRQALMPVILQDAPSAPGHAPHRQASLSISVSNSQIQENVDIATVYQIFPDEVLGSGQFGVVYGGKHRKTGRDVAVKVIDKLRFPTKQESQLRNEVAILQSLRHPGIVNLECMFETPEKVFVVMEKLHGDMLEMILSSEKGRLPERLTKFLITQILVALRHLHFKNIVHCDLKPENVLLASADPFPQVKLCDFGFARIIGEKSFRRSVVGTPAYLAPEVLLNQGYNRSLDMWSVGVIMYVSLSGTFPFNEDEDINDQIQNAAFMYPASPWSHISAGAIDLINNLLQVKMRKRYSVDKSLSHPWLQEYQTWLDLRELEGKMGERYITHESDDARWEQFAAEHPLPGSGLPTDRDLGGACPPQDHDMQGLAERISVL
Source text: as §1

[3] = biological target: 363 human kinases (including Aurora A/B/C) (Homo sapiens, UniProt O95819); settings: HGK/MAP4K4; for remaining activity at 0.1 µM: 100 nM; for remaining activity at 0.1 µM / remaining activity at 0.5 µM: read-out: % Enzyme Activity (relative to DMSO controls)
Source text: as §1

[4] = biological target: 363 human kinases (including Aurora A/B/C) (Homo sapiens, UniProt Q9H4A3); settings: WNK1; for remaining activity at 0.1 µM: 100 nM; for remaining activity at 0.1 µM / remaining activity at 0.5 µM: read-out: % Enzyme Activity (relative to DMSO controls)
Source text: as §1

[5] = biological target: 363 human kinases (including Aurora A/B/C) (Homo sapiens, UniProt P34947); settings: GRK5; for remaining activity at 0.1 µM: 100 nM; for remaining activity at 0.1 µM / remaining activity at 0.5 µM: read-out: % Enzyme Activity (relative to DMSO controls)
Source text: as §1

[6] = biological target: 363 human kinases (including Aurora A/B/C) (Homo sapiens, UniProt Q9BYP7); settings: WNK3; for remaining activity at 0.1 µM: 100 nM; for remaining activity at 0.1 µM / remaining activity at 0.5 µM: read-out: % Enzyme Activity (relative to DMSO controls)
Source text: as §1

[7] = biological target: 363 human kinases (including Aurora A/B/C) (Homo sapiens, UniProt Q13164); settings: ERK5/MAPK7, [ATP] 5 µM; for remaining activity at 0.1 µM: 100 nM; for remaining activity at 0.1 µM / remaining activity at 0.5 µM: read-out: % Enzyme Activity (relative to DMSO controls)
Source text: as §1

[8] = biological target: T2, 363 human kinases (including Aurora A/B/C) (Homo sapiens, UniProt Q8WXR4); settings: MYO3b; for remaining activity at 0.1 µM: 100 nM; for remaining activity at 0.1 µM / remaining activity at 0.5 µM: read-out: % Enzyme Activity (relative to DMSO controls)
T2 sequence (Q8WXR4 1-1341): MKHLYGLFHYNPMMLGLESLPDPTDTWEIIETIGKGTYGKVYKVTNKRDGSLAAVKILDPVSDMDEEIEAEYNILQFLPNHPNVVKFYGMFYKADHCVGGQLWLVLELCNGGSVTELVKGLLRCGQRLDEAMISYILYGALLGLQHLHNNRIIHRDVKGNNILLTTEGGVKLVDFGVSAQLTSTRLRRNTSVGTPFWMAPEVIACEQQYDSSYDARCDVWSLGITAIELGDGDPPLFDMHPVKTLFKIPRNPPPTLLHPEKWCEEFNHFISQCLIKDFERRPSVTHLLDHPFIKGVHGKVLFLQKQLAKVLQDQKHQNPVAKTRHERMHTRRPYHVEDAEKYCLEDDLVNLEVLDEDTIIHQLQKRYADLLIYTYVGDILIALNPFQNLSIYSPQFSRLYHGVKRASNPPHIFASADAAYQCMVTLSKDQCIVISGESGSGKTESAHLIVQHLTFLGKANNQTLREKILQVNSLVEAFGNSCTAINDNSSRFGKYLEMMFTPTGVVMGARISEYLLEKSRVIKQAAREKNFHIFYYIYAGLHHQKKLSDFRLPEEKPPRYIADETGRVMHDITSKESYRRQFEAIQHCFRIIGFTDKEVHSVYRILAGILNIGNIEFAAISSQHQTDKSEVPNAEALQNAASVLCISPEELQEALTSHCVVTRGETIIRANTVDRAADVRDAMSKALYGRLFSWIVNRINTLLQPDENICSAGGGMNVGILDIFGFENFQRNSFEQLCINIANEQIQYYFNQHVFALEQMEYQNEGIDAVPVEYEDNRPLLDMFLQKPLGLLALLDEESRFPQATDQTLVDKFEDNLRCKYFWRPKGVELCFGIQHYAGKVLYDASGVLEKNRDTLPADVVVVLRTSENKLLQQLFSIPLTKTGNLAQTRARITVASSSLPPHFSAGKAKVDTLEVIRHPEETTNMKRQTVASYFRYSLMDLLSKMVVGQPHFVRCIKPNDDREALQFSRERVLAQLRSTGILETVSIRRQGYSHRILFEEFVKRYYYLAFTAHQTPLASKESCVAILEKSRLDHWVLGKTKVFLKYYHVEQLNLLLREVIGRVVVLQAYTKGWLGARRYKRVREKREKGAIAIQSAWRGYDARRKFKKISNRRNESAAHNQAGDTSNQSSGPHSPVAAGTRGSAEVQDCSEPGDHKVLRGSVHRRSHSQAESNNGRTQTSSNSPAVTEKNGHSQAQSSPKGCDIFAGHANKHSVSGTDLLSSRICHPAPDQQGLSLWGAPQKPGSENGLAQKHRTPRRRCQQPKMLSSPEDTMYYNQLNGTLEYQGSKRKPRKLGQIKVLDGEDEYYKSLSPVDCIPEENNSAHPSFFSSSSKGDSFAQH
Source text: as §1

[9] = biological target: 363 human kinases (including Aurora A/B/C) (Homo sapiens, UniProt Q15349); settings: RSK3; for remaining activity at 0.1 µM: 100 nM; for remaining activity at 0.1 µM / remaining activity at 0.5 µM: read-out: % Enzyme Activity (relative to DMSO controls)
Chain of 363 human kinases (including Aurora A/B/C) (Homo sapiens, UniProt Q15349) (Q15349 whole entry): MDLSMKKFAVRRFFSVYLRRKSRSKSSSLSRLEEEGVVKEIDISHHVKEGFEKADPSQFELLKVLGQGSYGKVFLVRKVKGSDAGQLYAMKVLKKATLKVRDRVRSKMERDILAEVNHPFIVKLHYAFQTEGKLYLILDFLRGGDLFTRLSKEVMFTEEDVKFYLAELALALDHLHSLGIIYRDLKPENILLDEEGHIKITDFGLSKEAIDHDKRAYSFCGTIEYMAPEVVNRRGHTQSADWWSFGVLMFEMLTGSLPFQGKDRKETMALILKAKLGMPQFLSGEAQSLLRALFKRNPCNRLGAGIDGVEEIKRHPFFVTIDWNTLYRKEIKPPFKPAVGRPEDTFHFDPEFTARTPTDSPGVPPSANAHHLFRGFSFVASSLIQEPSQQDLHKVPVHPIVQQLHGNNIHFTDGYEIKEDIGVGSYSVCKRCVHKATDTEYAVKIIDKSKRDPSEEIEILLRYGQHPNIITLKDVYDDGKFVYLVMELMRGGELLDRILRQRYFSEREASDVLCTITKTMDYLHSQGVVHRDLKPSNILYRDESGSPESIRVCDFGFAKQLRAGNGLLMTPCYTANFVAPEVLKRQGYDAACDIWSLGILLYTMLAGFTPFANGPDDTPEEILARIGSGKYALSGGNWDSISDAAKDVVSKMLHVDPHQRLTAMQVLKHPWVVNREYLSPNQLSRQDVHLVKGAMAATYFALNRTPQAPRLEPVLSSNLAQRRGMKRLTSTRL
Source text: as §1

Chain of 363 human kinases (including Aurora A/B/C) (Homo sapiens, UniProt Q9H4A3) (Q9H4A3 whole entry): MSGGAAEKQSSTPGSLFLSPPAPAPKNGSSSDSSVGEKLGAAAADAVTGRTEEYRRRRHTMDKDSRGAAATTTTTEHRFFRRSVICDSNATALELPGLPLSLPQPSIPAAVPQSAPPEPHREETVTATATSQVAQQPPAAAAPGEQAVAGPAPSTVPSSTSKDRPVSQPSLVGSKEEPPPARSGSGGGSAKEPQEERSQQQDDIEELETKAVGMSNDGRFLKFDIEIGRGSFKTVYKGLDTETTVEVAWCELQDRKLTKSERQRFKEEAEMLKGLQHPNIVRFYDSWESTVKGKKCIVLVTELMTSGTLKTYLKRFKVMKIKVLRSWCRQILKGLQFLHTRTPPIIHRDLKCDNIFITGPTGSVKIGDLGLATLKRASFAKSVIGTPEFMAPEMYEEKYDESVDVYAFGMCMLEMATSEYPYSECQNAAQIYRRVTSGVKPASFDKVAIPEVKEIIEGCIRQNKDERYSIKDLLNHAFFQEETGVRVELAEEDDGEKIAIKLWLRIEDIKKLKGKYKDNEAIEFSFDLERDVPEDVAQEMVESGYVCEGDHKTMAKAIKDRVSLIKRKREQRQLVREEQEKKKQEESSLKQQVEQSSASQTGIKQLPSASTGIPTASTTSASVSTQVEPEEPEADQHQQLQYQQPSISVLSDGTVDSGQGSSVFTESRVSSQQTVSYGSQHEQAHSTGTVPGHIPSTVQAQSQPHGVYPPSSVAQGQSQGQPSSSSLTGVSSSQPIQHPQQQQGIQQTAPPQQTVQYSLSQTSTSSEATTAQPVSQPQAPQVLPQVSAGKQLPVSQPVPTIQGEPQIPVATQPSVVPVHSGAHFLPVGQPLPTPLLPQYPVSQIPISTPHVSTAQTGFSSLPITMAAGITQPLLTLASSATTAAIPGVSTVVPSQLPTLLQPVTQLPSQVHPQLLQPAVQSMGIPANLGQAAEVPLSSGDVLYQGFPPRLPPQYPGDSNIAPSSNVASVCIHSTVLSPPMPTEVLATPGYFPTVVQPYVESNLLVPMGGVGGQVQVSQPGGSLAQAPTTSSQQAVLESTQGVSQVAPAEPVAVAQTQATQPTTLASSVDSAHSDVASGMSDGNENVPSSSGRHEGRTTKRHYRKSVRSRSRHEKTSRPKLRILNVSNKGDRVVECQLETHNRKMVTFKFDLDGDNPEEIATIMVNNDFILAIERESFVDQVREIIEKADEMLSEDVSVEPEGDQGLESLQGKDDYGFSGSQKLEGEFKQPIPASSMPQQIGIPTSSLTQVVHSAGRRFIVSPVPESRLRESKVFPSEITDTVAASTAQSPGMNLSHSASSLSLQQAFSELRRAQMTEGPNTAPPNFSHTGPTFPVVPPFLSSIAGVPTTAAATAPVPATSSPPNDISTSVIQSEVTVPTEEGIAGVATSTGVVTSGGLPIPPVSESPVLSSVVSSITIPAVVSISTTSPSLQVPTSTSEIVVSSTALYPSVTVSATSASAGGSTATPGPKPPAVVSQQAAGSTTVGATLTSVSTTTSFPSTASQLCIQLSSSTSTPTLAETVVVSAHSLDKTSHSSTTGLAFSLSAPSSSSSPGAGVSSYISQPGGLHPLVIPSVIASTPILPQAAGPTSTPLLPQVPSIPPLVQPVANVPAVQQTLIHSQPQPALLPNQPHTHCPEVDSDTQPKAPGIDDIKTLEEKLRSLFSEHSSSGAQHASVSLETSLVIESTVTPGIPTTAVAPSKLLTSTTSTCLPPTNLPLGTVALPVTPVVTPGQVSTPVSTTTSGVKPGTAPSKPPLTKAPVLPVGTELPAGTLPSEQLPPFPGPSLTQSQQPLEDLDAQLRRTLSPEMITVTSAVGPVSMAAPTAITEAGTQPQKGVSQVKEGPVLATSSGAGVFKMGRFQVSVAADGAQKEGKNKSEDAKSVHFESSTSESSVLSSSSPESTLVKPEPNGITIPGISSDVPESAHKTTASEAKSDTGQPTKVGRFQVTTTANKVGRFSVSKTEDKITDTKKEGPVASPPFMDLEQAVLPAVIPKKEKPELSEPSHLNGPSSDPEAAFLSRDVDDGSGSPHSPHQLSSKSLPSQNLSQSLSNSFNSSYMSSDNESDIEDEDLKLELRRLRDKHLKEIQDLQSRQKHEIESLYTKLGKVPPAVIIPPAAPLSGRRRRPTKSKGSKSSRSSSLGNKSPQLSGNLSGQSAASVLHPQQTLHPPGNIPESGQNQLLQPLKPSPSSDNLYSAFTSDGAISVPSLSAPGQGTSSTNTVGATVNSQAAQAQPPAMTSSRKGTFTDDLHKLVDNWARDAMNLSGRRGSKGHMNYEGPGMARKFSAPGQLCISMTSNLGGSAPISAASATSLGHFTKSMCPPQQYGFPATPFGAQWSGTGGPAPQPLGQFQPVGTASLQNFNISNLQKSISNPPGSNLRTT
Chain of 363 human kinases (including Aurora A/B/C) (Homo sapiens, UniProt P34947) (P34947 whole entry): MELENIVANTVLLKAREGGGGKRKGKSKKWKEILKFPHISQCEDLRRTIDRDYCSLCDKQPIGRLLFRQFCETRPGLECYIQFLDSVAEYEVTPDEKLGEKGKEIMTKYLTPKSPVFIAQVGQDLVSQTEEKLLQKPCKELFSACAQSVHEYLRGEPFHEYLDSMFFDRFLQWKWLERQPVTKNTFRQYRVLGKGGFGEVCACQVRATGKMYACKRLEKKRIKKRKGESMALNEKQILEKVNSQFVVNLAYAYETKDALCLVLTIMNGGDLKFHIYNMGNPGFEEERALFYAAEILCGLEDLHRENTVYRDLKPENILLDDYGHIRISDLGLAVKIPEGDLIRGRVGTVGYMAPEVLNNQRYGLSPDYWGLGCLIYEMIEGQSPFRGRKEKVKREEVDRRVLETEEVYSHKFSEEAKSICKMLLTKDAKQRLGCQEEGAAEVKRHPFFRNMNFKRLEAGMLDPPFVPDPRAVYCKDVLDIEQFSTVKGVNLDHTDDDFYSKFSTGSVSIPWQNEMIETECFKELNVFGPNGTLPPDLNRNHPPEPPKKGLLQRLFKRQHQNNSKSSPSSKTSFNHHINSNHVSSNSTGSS
Chain of 363 human kinases (including Aurora A/B/C) (Homo sapiens, UniProt O95819) (O95819 whole entry): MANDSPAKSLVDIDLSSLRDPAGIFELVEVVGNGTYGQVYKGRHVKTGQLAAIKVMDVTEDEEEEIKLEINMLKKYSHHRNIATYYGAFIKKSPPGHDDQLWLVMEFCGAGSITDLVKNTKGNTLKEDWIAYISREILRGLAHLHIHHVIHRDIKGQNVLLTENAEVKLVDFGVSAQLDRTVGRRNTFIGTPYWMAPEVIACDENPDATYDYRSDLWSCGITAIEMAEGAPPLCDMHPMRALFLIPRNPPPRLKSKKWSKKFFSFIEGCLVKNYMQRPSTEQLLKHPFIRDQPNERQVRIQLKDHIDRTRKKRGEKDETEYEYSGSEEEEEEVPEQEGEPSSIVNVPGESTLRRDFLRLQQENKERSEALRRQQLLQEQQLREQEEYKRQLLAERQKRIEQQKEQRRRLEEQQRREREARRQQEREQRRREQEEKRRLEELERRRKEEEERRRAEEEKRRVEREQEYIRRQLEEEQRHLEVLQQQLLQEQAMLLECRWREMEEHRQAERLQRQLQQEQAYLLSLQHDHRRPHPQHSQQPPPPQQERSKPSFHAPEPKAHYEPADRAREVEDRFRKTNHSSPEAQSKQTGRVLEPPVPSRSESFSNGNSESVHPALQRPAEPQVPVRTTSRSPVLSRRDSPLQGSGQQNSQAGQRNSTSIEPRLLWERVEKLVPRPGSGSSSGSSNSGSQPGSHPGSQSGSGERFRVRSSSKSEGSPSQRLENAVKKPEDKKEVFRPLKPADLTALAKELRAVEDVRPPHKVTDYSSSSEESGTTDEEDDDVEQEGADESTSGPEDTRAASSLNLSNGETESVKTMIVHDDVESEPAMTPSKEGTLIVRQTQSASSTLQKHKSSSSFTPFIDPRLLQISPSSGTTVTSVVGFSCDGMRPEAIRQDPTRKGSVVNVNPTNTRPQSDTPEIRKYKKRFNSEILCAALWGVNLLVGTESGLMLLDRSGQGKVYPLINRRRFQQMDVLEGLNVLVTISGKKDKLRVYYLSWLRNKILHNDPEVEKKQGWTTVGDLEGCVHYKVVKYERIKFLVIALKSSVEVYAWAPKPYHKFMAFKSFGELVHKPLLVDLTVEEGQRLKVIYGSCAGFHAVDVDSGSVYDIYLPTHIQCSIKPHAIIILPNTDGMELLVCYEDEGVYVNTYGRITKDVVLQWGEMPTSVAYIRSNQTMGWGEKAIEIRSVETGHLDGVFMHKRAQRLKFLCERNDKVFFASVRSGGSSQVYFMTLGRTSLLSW

SMILES	remaining activity at 0.1 µM [1]	remaining activity at 0.5 µM ([1]; 500 nM)	remaining activity at 0.1 µM [2]	remaining activity at 0.5 µM ([2]; 500 nM)	remaining activity at 0.1 µM [3]	remaining activity at 0.5 µM ([3]; 500 nM)	remaining activity at 0.1 µM [4]	remaining activity at 0.5 µM ([4]; 500 nM)	remaining activity at 0.1 µM [5]	remaining activity at 0.5 µM ([5]; 500 nM)	remaining activity at 0.1 µM [6]	remaining activity at 0.5 µM ([6]; 500 nM)	remaining activity at 0.1 µM [7]	remaining activity at 0.5 µM ([7]; 500 nM)	remaining activity at 0.1 µM [8]	remaining activity at 0.5 µM ([8]; 500 nM)	remaining activity at 0.1 µM [9]	remaining activity at 0.5 µM ([9]; 500 nM)	also measured
O=C(O)[C@]1(Cc2cccc(Nc3nccs3)n2)CC[C@@H](Oc2cccc(Cl)c2F)CC1 [MK-5108]	104%	88.5%	98.5%	101%	95.5%	72.9%	94%	86.4%	102%	90.9%	91.9%	63.4%	95.3%	95.4%	99.8%	100%	101%	89.7%	
O=C(c1cccc(Cl)c1F)N1CCN(Cc2cccc(Nc3nccs3)n2)CC1 [MK-8745]		93.8%		98.1%		89.1%		91.3%		95.8%		108%		89%		107%		99.9%	% Enzyme Activity (relative to DMSO controls) ([1]; 500 nM): 93.64%; % Enzyme Activity (relative to DMSO controls) ([2]; 500 nM): 96.92%; % Enzyme Activity (relative to DMSO controls) ([3]; 500 nM): 88.10%; % Enzyme Activity (relative to DMSO controls) ([4]; 500 nM): 90.95%; % Enzyme Activity (relative to DMSO controls) ([5]; 500 nM): 94.27%; % Enzyme Activity (relative to DMSO controls) ([6]; 500 nM): 106.70%; % Enzyme Activity (relative to DMSO controls) ([7]; 500 nM): 88.71%; % Enzyme Activity (relative to DMSO controls) ([8]; 500 nM): 106.69%; % Enzyme Activity (relative to DMSO controls) ([9]; 500 nM): 96.48%
CCn1cc(-c2ccnc3[nH]c(-c4cccc(CN(C)C)c4)cc23)c(-c2ccc(NC(=O)N(C)C)cc2)n1 [GSK1070916]	87.2%		93.3%		87.5%		84.3%		96.3%		110%		97.6%		102%		95.2%		
